In ChEMBL document CHEMBL5370532, “Selective Estrogen receptor degraders (SERDs) for the treatment of breast cancer: An overview” (Eur J Med Chem, 2023):
One block for each compound: values may come before it.

What was measured:
MCF7 [1] = test: Antiproliferative activity against 17beta-estradiol stimulated human MCF7 cells assessed as inhibition of cell growth incubated for 5 to 7 days by fluorescence based assay; assay type: functional
Ishikawa = test: Antiproliferative activity against human Ishikawa cells assessed as inhibition of cell growth incubated for 48 hrs by MTT assay; assay type: functional, cell-based
MCF7 [2] = test: Antiproliferative activity against human MCF7 cells assessed as inhibition of cell growth incubated for 48 hrs by MTT assay; assay type: functional, cell-based; conditions: MCF7, 48 h
MCF7 [3] = test: Antiproliferative activity against human MCF7 cells assessed as inhibition of cell growth incubated for 48 hrs by CCK-8 assay; assay type: functional, cell-based; conditions: MCF7, 48 h
Estrogen receptor beta = Estrogen receptor beta (Homo sapiens, UniProt Q92731); test: Inhibition of ERbeta (unknown origin) incubated for 4 hrs by fluorescence polarization assay
Chain of Estrogen receptor beta (Q92731 whole entry): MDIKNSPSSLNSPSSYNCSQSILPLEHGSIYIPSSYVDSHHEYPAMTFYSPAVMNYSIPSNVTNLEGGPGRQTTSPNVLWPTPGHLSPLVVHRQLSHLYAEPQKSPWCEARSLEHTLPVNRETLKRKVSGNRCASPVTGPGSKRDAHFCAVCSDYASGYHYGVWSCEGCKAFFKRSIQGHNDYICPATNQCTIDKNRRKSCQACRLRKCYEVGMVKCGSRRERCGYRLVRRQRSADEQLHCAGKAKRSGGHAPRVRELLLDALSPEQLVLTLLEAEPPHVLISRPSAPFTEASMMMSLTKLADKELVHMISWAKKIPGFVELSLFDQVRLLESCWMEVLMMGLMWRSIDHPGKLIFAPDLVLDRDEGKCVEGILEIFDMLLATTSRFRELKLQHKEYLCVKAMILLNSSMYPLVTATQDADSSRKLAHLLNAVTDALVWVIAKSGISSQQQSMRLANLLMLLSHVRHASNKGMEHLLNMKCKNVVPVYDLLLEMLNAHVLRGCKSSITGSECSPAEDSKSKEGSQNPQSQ

[4] = In vivo antagonist activity against E2-mediated uterine stimulation in Sprague-Dawley rat administered orally or subcutaneously once daily for 3 days; assay type: functional, organism-based
[5] = Downregulation of ER expression in human MCF7 cells incubated for 48 hrs by ELISA; assay type: functional, cell-based; conditions: MCF7, 48 h
[6] = Observed AUC (0 to infinity) in Sprague-Dawley rat at 10 mg/kg, po via gavage for 2 hrs by UHPLC analysis; assay type: ADME, organism-based; set-up: dose 10 mg/kg, time 2 hrs, route po; conditions: in vivo
[7] = Cmax in Sprague-Dawley rat at 10 mg/kg, po via gavage for 2 hrs by UHPLC analysis; assay type: ADME, organism-based; set-up: dose 10 mg/kg, time 2 hrs, route po; conditions: in vivo
[8] = Half life in Sprague-Dawley rat at 10 mg/kg, po via gavage for 2 hrs by UHPLC analysis; assay type: ADME, organism-based; conditions: in vivo

Structure (SMILES): CCNCCc1ccc(CN(CC)c2cc(OC)ccc2[C@@H]2CCc3cc(O)ccc3C2)cc1 [ELACESTRANT]
IC50 (Estrogen receptor beta): 870 nM | EC50 [4]: 0.3 mg/kg | EC50 [5]: 0.6 nM

Structure (SMILES): C[C@]12CC[C@@H]3c4ccc(B(O)O)cc4C[C@@H](CCCCCCCCC[S+]([O-])CCCC(F)(F)C(F)(F)F)[C@H]3[C@@H]1CC[C@@H]2O (stereo not given in full) [ZB-716]
AUC(0-inf) [6]: 1450 ng·h/mL | Cmax [7]: 158 ng/mL | half-life [8]: 17 h

Now from value to compound, other results behind:

IC50 (MCF7 [1]): 7.2 nM
Structure (SMILES): CC1=C(c2ccc(O)cc2)[C@H](c2ccc(OCCN3CC[C@@H](C)C3)cc2)Oc2cc(O)ccc21

IC50 (MCF7 [2]): 3150 nM
Structure (SMILES): O=C(/C=C\c1ccc(-c2nc(-c3ccc(O)cc3)nc(-c3ccc(O)cc3)n2)cc1)NCCCO
IC50 (Ishikawa): 3110 nM

IC50 (MCF7 [3]): 800 nM
Structure (SMILES): COc1ccc(C(=O)C2=C(Oc3ccc(/C=C/C(=O)O)cc3)c3ccc(O)cc3OC2)cc1
